Entries after “also recorded” stand apart in the source; their conditions may differ.
Assays:
[1] = system: normal T and B lymphocytes; test: Immunosuppressive activity: inhibition of normal T/B lymphocyte increment (MTT); type: cell-based, rat; conditions: FIG. 4
Procedure: The rats were sacrificed by neck amputation and soaked in 75% ethanol. The spleens of the rats were taken out in an ultra-clean bench, washed in DPBS for 3 times, fully moistened, 200 mesh gauze was placed on a dish (35 mm diameter), it is evenly ground in one direction by a piston of a 10 mL syringe, the spleen was moistened with DPBS while grinding. The collected lymphocyte suspension was centrifuged at 1500 rpm for 3 min, and 7 mL of erythrocyte lysate was added to each spleen suspension. After acting at room temperature for 30 min, the cells were centrifuged at 1500 rpm for 3 min. After discarding supernatant, the cells were washed with DPBS for 3 times to remove excess serum, added with […] of 70% Percoll to the bottom layer of 15 mL centrifuge tube and […] of 40% Percoll to the upper layer of 15 mL centrifuge tube, then centrifuged 800 g at room temperature for 20 min on a horizontal centrifuge.

induced T/B lymphocyte = test: Specific inhibition experiment: Con A- or LPS-induced T/B lymphocyte increment (MTT); type: cell-based, rat; conditions: FIG. 5
Procedure: The pretreatment of lymphocytes in the specific inhibition experiment is the same as above. After lymphocytes inoculated into 96-well culture plates, drug was added. 200 μL of drug was added each to blank control group (culture medium only), T lymphocyte specific increment inducer Con A model group (5 μg/mL, corresponding model group) and B lymphocyte specific increment inducer LPS model group (5 μg/mL, corresponding model group). Con A administration group was firstly added multiple doses of T lymphocyte specific increment inducer Con A 100 μL ([…], corresponding model group) separately, and then added 100 μL of triptriolide (100, 200, 300, 400 μg/mL) with different concentrations separately. In LPS administration group, multiple doses of B lymphocyte specific increment inducer LPS 100 μL ([…], corresponding model group) were added respectively, and 100 μL of triptriolide (100, 200, 300, 400 μg/mL) with different concentrations were added respectively.

Raw264.7 cells = test: Anti-inflammatory activity in LPS-induced Raw264.7 cell inflammation model; type: cell-based, rat
Procedure: Raw264.7 37° C., 5% CO2 RPMI-1640+10% FBS+1% Pen Strep. Finally, the cell was cultured in an incubator until 80% of the cells adhere to the wall. The cells in logarithmic growth phase were taken and adjusted to the appropriate cell density in a 96-well plate after digestion with 0.25% trypsin. After adhering to the wall in monolayer, the cell was cultured in a synchronized medium for 12 hours. After entering the quiescent period, except for the blank control group, 1 mL of LPS (1 μg/mL) was used as a modeling agent in other groups to induce the cell inflammation model in the cell in each group. Meanwhile, drug treatment is carried out: 1 mL of culture medium was added to the model group, 1 mL of liquid drug with corresponding concentration was added to the drug administration group (triptolide 50, 100, 150, 200 μg/mL dose group), and 2 ml of culture medium was directly added to the blank control group. Western blot, qPCR, ELISA and other methods were used to detect the expression levels of inflammation-related proteins, genes, cytokines, the expressions of NF-κB transcription-related factors, and the expressions of IL-6, IL-10, TNF-α and other inflammatory cytokines in different treatment groups.

podocyte cell line MPCS = test: Protection of podocytes from ADM-induced apoptosis; type: cell-based, rat
Procedure: Rat immortalized podocyte cell line MPCS is presented by nephrology department of Guangdong provincial hospital of Traditional Chinese Medicine. The treatment methods of […] are presented as follows: Western blot, IFC, qPCR, ELISA and other methods are used to detect the expression levels of inflammation-related proteins, genes and cytokines in different treatment groups. The podocyte cell is temperature sensitive cell, increases at 33° C. RPMI-1640+10% FBS+1% Pen Strep+10 U/mL γ-IFN, and differentiates at 37° C. RPMI-1640+10% FBS+1% Pen Strep medium for 10-14 days. […] The expression of podocaine membrane protein podocine and apoptosis-related gene Bax were detected by flow cytometry using FITC-labeled Annexin V and Propidium iodide (PI) to differentiate early apoptotic cells from late apoptotic cells and dead cells.

[2] = system: rat with ear swelling model; conditions: Zheng Jiarun, et al., 1991; cited from earlier work

SMILES: CC(C)[C@]1(O)[C@H](O)[C@@H]2O[C@]23[C@]2(O[C@H]2C[C@H]2C4=C(CC[C@@]23C)C(=O)OC4)[C@@H]1O [triptriolide]
- inhibiting increment of normal T and B lymphocytes in vitro ([1]; 50, 100, 150, 200 μg/mL, 24 h, MTT): dose-dependent
- cell activity of normal T and B lymphocytes ([1]; each administration group, p<0.05): significantly lower than that of the control group and model group
- immunosuppressive effect (induced T/B lymphocyte; Con A-induced T vs LPS-induced B lymphocytes): lower immunosuppressive effect; also recorded: on T lymphocytes is significantly higher than that on B lymphocytes
- cell activity of Con A- / LPS-induced lymphocytes (induced T/B lymphocyte; different concentrations, 24 h, MTT): higher than that of the blank control group, but lower than that of the model group
- effects of inflammatory factors TNF-α and IL-10 (Raw264.7 cells; FIGS. 7 and 8): effectively reduce
- cytokine secretion in LPS-induced inflammatory injury model (Raw264.7 cells; LPS 1 μg/mL, FIG. 6): can improve cytokine secretion
- expression of IL-10 (Raw264.7 cells; at high concentration): can be increased
- apoptosis of podocytes (podocyte cell line MPCS; 0.8 μg/mL ADM apoptosis model, FIGS. 9 to 11): attenuated
- apoptosis of podocytes at high concentration (podocyte cell line MPCS; 0.8 μg/mL ADM, high concentration): upward trend
- anti-inflammatory activity [2]: weak anti-inflammatory activity
- immunosuppressive activity [2]: no immunosuppressive activity

— US10925913B2, “Low toxic tripterygium neoglycosides, preparation method and application thereof” (priority 2017, dated 2021)
